Reference: patent US4642314A, “Antiulcer compounds” (Nisshin Flour Milling Co., Ltd., priority 1984, dated 1987)

What was measured:
[1] = acute toxicity (LD50), intraperitoneal route in mice; format: in vivo; conditions: mouse, in vivo, ip
[2] = test system: acetic acid-induced ulcer; experiment: Acetic acid-induced ulcer (Curative test); format: in vivo, rat (male SD rats); conditions: Table 2; rat, 0.05 ml of 15% acetic acid underneath the serosa; lesion area on 14th day
Description: (§1) In the case of reserpine-induced ulcer, the assay was performed according to the description in "Arch. Int. Pharmacodym. Ther. 147,113 (1964)", and in the case of acetic acid-induced ulcer, the assay was performed according to the method described in "Jap. J. Pharmac. 19,418 (1969)", by inducing experimental ulcer in rat and evaluating the effect thereon of the compounds tested.
Groups of rats, each consisting of 6 male SD rats weighing 150-200 g were used. The stomach of ether-anesthesized rat was exposed and while taking acre not to injure blood vessels, 0.05 ml of 15% aqueous acetic acid solution was injected underneath the serosa. On the 14th day, the rats were killed with chloroform, the stomach taken out and the area of the infected lesion measured.
The curative ratio was calculated using the above equation: [formula]

[3] = test system: reserpine-induced ulcer; experiment: Reserpine-induced ulcer (Preventive test); format: in vivo, rat (male SD rats); conditions: Table 1; rat, 100 mg/kg oral, 30 min before reserpine 15 mg/kg i.p.; evaluated at 18 h; read-out: Preventive effect (preventive ratio)
Description: as §1
Groups of rats, each consisting of 6 male SD rats weighing 150-200 g were used. After 24 hours' fasting, a sample compound was orally administered to the rat at the dose of 100 mg/kg body weight, and 30 minutes after the administration, reserpine was intraperitoneally injected at the dose of 15 mg/kg body weight. Eighteen hours after the administration, the rats were killed with chloroform. The stomach was taken out, and severity of the hemorrhaging lesion was evaluated according to the method as above ("Arch. Int. Pharmacodym. Ther. 147,113 (1964)).
The preventive ratio was calculated using the following equation, [formula] wherein the control animals were intraperitoneally given reserpine only, at the dose of 15 mg/kg body weight.

## CC(C)=CCCC(C)=CCCC(C)=CCCC(C)=CCCC(C)=CCCC(C)=CCCC(C)=CCCC(C)=CCCC(C)=CCCC(C)=CCCC(=O)OC(C)C [Isopropyl decaprenylacetate]
[1]; Table 2
  LD50: > 4000 mg/kg
[2]
  Curative effect (curative ratio): + (10%-25%)

## CCOC(=O)CCC=C(C)CCC=C(C)CCC=C(C)CCC=C(C)CCC=C(C)CCC=C(C)CCC=C(C)CCC=C(C)CCC=C(C)CCC=C(C)C [Ethyl decaprenylacetate]
[1]; Table 2
  LD50: > 4000 mg/kg
[2]
  Curative effect (curative ratio): +++ (40%-)

## CC(C)=CCCC(C)=CCCC(C)=CCCC(=O)OCC=C(C)CCC=C(C)CCC=C(C)CCC=C(C)CCC=C(C)CCC=C(C)CCC=C(C)CCC=C(C)CCC=C(C)CCC=C(C)C [Decaprenyl farnesylacetate]
[1]; Table 2
  LD50: > 5000 mg/kg
[2]
  Curative effect (curative ratio): + (10%-25%)

## CC(C)=CCCC(C)=CCCC(C)=CCCC(=O)OC/C=C(\C)CCC[C@H](C)CCC[C@H](C)CCCC(C)C [Phytyl farnesylacetate]
[1]; Table 1
  LD50: > 5000 mg/kg
[3]
  inhibition in vivo at 100 mg/kg: 10 to 40%

## CCCCCCCCCCC/C=C\CCCCC(=O)OCC=C(C)CCC=C(C)CCC=C(C)CCC=C(C)CCC=C(C)CCC=C(C)CCC=C(C)CCC=C(C)CCC=C(C)CCC=C(C)C [Decaprenyl petroselinate]
[1]; Table 2
  LD50: > 4000 mg/kg
[2]
  Curative effect (curative ratio): ++ (25%-40%)

## CC(C)=CCCC(C)=CCCC(C)=CCCC(C)=CCCC(C)=CCCC(C)=CCCC(C)=CCCC(C)=CCCC(C)=CCCC(=O)OCC=C(C)CCC=C(C)CCC=C(C)CCC=C(C)CCC=C(C)CCC=C(C)CCC=C(C)CCC=C(C)CCC=C(C)C [Solanesyl solanesylacetate]
[1]; Table 1
  LD50: > 4000 mg/kg
[3]
  inhibition in vivo at 100 mg/kg: 10 to 40%

## CCCCCC[C@@H](O)C/C=C\CCCCCCCC(=O)OC/C=C(\C)CCC[C@H](C)CCC[C@H](C)CCCC(C)C [Phytyl ricinoleate]
[1]; Table 2
  LD50: > 5000 mg/kg
[2]
  Curative effect (curative ratio): + (10%-25%)

## CC(C)=CCCC(C)CCCC(=O)OC/C=C(\C)CCC[C@H](C)CCC[C@H](C)CCCC(C)C (some centres unmarked) [Phytyl citronellylacetate]
[1]; Table 1
  LD50: > 5000 mg/kg
[3]
  inhibition in vivo at 100 mg/kg: 10 to 40%

## CC(C)=CCCC(C)=CCCC(C)=CCCC(C)=CCCC(C)=CCCC(C)=CCCC(C)=CCCC(C)=CCCC(C)=CCCC(C)=CCCC(=O)OCC=C(C)CCC=C(C)CCC=C(C)CCC=C(C)CCC=C(C)CCC=C(C)CCC=C(C)CCC=C(C)CCC=C(C)C [Solanesyl decaprenylacetate]
[1]; Table 1
  LD50: > 4000 mg/kg
[3]
  inhibition in vivo at 100 mg/kg: 10 to 40%

## CC(C)=CCCC(C)=CCCC(C)=CCCC(C)=CCCC(C)=CCCC(C)=CCCC(C)=CCCC(C)=CCCC(C)=CCCC(=O)Oc1c(C)c(C)c2c(c1C)CCC(C)(CCCC(C)CCCC(C)CCCC(C)C)O2 (stereo not drawn) [α-Tocopheryl solanesylacetate]
[1]; Table 1
  LD50: > 4000 mg/kg
[3]
  inhibition in vivo at 100 mg/kg: 40 to 60%

## CC(C)=CCCC(C)=CCCC(C)=CCCC(C)=CCCC(C)=CCCC(C)=CCCC(C)=CCCC(C)=CCCC(C)=CCCC(=O)O [Solanesylacetic acid]
[1]; Table 2
  LD50: > 4000 mg/kg
[2]
  Curative effect (curative ratio): + (10%-25%)

## CC(C)=CCCC(C)=CCCC(C)=CCCC(C)=CCCC(C)=CCCC(C)=CCCC(C)=CCCC(C)=CCCC(C)=CCOC(=O)CCC=C(C)CCCC(C)CCCC(C)CCCC(C)C (centres unmarked) [Solanesyl phytylacetate]
[1]; Table 1
  LD50: > 4000 mg/kg
[3]
  inhibition in vivo at 100 mg/kg: 10 to 40%

## CC(C)=CCCC(C)=CCCC(C)=CCCC(C)=CCCC(C)=CCCC(C)=CCCC(C)=CCCC(C)=CCCC(C)=CCCC(C)=CCCC(=O)OCCC(C)C [Isoamyl decaprenylacetate]
[1]; Table 2
  LD50: > 4000 mg/kg
[2]
  Curative effect (curative ratio): + (10%-25%)

## CCOC(=O)CCC=C(C)CCC=C(C)CCC=C(C)CCC=C(C)CCC=C(C)CCC=C(C)CCC=C(C)CCC=C(C)CCC=C(C)C [Ethyl solanesylacetate]
[1]; Table 2
  LD50: > 4000 mg/kg
[2]
  Curative effect (curative ratio): ++ (25%-40%)

## CCCCCCCCCCC/C=C\CCCCC(=O)OC/C=C(\C)CCC[C@H](C)CCC[C@H](C)CCCC(C)C [Phytyl petroselinate]
[1]; Table 2
  LD50: > 5000 mg/kg
[2]
  Curative effect (curative ratio): ++ (25%-40%)

## CCCCCCCC/C=C/CCCCCCCCCCCC(=O)OCC=C(C)CCC=C(C)CCC=C(C)CCC=C(C)CCC=C(C)CCC=C(C)CCC=C(C)CCC=C(C)CCC=C(C)CCC=C(C)C [Decaprenyl brassidate]
[1]; Table 2
  LD50: > 4000 mg/kg
[2]
  Curative effect (curative ratio): ++ (25%-40%)

## CCCCC/C=C\C/C=C\CCCCCCCC(=O)OC/C=C(\C)CCC[C@H](C)CCC[C@H](C)CCCC(C)C [Phytyl linoleate]
[1]; Table 2
  LD50: > 4000 mg/kg
[2]
  Curative effect (curative ratio): + (10%-25%)

## CCCCCCCCCCCCCCCC(=O)OC/C=C(\C)CCC[C@H](C)CCC[C@H](C)CCCC(C)C [Phytyl palmitate]
[1]; Table 1
  LD50: > 5000 mg/kg
[3]
  inhibition in vivo at 100 mg/kg: 40 to 60%

## COC(=O)CCC=C(C)CCC=C(C)CCC=C(C)CCC=C(C)CCC=C(C)CCC=C(C)CCC=C(C)CCC=C(C)CCC=C(C)C [Methyl solanesylacetate]
[1]; Table 2
  LD50: > 4000 mg/kg
[2]
  Curative effect (curative ratio): ++ (25%-40%)

## CCCCCCCC/C=C/CCCCCCCC(=O)OC/C=C(\C)CCC[C@H](C)CCC[C@H](C)CCCC(C)C [Phytyl elaidate]
[1]; Table 2
  LD50: > 4000 mg/kg
[2]
  Curative effect (curative ratio): + (10%-25%)

## COC(=O)CC/C=C(\C)CCC[C@H](C)CCC[C@H](C)CCCC(C)C [Methyl phytlacetate, Methyl phytylacetate]
[1]; Table 1
  LD50: > 5000 mg/kg
[3]
  inhibition in vivo at 100 mg/kg: 10 to 40%

## CCCCCCCCC1OC1CCCCCCCC(=O)OC/C=C(\C)CCC[C@H](C)CCC[C@H](C)CCCC(C)C (some centres unmarked) [Phytyl 9,10-epoxystearate]
[1]; Table 2
  LD50: > 5000 mg/kg
[2]
  Curative effect (curative ratio): + (10%-25%)

## COC(=O)CCC=C(C)CCC=C(C)CCC=C(C)CCC=C(C)CCC=C(C)CCC=C(C)CCC=C(C)CCC=C(C)CCC=C(C)CCC=C(C)C [Methyl decaprenylacetate]
[1]; Table 2
  LD50: > 4000 mg/kg
[2]
  Curative effect (curative ratio): ++ (25%-40%)

## CC(C)=CCCC(C)=CCCC(=O)OCC=C(C)CCC=C(C)CCC=C(C)CCC=C(C)CCC=C(C)CCC=C(C)CCC=C(C)CCC=C(C)CCC=C(C)CCC=C(C)C [Decaprenyl geranylacetate]
[1]; Table 2
  LD50: > 5000 mg/kg
[2]
  Curative effect (curative ratio): + (10%-25%)

## C/C(=C\CCC(=O)OC/C=C(\C)CCC[C@H](C)CCC[C@H](C)CCCC(C)C)CCC[C@H](C)CCC[C@H](C)CCCC(C)C [Phytyl phytylacetate]
[1]; Table 1
  LD50: > 5000 mg/kg
[3]
  inhibition in vivo at 100 mg/kg: 40 to 60%

## CC(C)=CCCC(C)=CCCC(C)=CCCC(C)=CCCC(C)=CCCC(C)=CCCC(C)=CCCC(C)=CCCC(C)=CCCC(=O)OCC=C(C)CCC=C(C)CCC=C(C)CCC=C(C)CCC=C(C)CCC=C(C)CCC=C(C)CCC=C(C)CCC=C(C)CCC=C(C)C [Decaprenyl solanesylacetate]
[1]; Table 2
  LD50: > 5000 mg/kg
[2]
  Curative effect (curative ratio): + (10%-25%)

## CCCCCCCCCCCCCCCCCC(=O)OC/C=C(\C)CCC[C@H](C)CCC[C@H](C)CCCC(C)C [Phytyl stearate]
[1]; Table 2
  LD50: > 4000 mg/kg
[2]
  Curative effect (curative ratio): + (10%-25%)

## CCCCCCCC/C=C\CCCCCCCCCCCC(=O)OC/C=C(\C)CCC[C@H](C)CCC[C@H](C)CCCC(C)C [Phytyl erucate]
[1]; Table 1
  LD50: > 4000 mg/kg
[3]
  inhibition in vivo at 100 mg/kg: 10 to 40%

## CC(=O)OCC=C(C)CCC=C(C)CCC=C(C)CCC=C(C)CCC=C(C)CCC=C(C)CCC=C(C)CCC=C(C)CCC=C(C)C [Solanesyl acetate]
[1]; Table 1
  LD50: > 4000 mg/kg
[3]
  inhibition in vivo at 100 mg/kg: 40 to 60%

## CC(C)=CCCC(C)=CCCC(C)=CCCC(C)=CCCC(C)=CCCC(C)=CCCC(C)=CCCC(C)=CCCC(C)=CCCC(C)=CCO [Decaprenol]
[1]; Table 2
  LD50: > 4000 mg/kg
[2]
  Curative effect (curative ratio): +++ (40%-)

## CC(C)=CCCC(C)=CCCC(=O)OCC=C(C)CCC=C(C)CCC=C(C)CCC=C(C)CCC=C(C)CCC=C(C)CCC=C(C)CCC=C(C)CCC=C(C)C [Solanesyl geranylacetate]
[1]; Table 2
  LD50: > 4000 mg/kg
[2]
  Curative effect (curative ratio): + (10%-25%)
